Experimental data as given in patent US20250042879A1, “HETEROCYCLIC SUBSTITUTED 1,3,4-THIADIAZOLE AND PYRIDAZINE COMPOUNDS AND METHODS OF USING THE SAME” (Rgenta Therapeutics, Inc., priority 2021, published 2025).
Counter-ions that a name gives are not always drawn.

Columns and labels:
Assay type in all cases: cell-based
[1] = system: HTT; assay: Mini-gene reporter assay-HTT (firefly luciferase, exon inclusion); settings: for EC50: Homo sapiens, HTT mini-gene firefly luciferase reporter transiently transfected into HEK293 cells; for Emax at 5 µM: HTT Minigene, read-out: % Efficacy at 5 μM
Summary of the method: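 HEK293 cells transiently transfected with a pcDNA3.1 mini-gene carrying the alternatively skipped exon with flanking introns and exons fused to firefly luciferase were incubated with compound, in duplicate. Exon inclusion raises luciferase luminescence. EC50 came from Levenberg-Marquardt curve fitting.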

[2] = system: HTT (exclusion transcript); assay: RT-qPCR assay to quantify changes in HTT splice isoforms: exclusion transcript; settings: Homo sapiens, SK-N-SH cells, approximately 96 hours, GAPDH reference
Description: (§1) SK—N—SH cells were seeded at 8.5e3 per well in a 96 well plate, in […] (×4 plates, quadruplicate) and treated with the indicated compounds at different concentrations with a final DMSO concentration of 0.5%. Vehicle controls were set up by diluting DMSO 1:200. Cells were returned to a humidified incubator at 37° C., 5% CO2 and treated for approximately 96 hours.
(§2) RNA was isolated from each well using QIAGEN RNeasy mini columns (cat #74004) as per the manufacturer's instructions. Each condition was done in quadruplicate as mentioned above to allow for adequate starting template for downstream analyses. These quadruplicates were pooled (by condition) into single replicates at the cell lysis step. Reverse-transcription was done using the Applied Biosystems High-Capacity cDNA Reverse Transcription Kit (cat #4368814), per the manufacturer's instructions, using approximately half of the harvested RNA. The cDNA was diluted 1:10 in nuclease-free water, and qPCR was done using Applied Biosystems PowerUp SYBR Green Master Mix (cat #A25742) per the manufacturer's instructions. Cycling conditions are primers are detailed below. Each sample was run in technical duplicates.
(§3) Data were analyzed using the 2-DDCT method. GAPDH was used as the reference gene, and vehicle (i.e. DMSO only) treated cells were used as the reference/untreated cell populations. Relative expression of the HTT transcripts was plotted using Graphpad Prism.

[3] = system: HTT (inclusion transcript); assay: RT-qPCR assay to quantify changes in HTT splice isoforms: inclusion transcript; settings: Homo sapiens, SK-N-SH cells, approximately 96 hours, GAPDH reference
Description: as §1, §2, §3

SMILES	EC50 [1] [nM]	EC50 [2] [nM]	EC50 [3] [nM]	Emax at 5 µM [1] [%]
Cn1cc2cc(-c3ccc(-c4ccc(C5CN(C6CCOCC6)C5)nn4)c(O)c3)ccc2n1 [Compound 22, 5-(2-methyl-2H-indazol-5-yl)-2-{6-[1-(oxan-4-yl)azetidin-3-yl]pyridazin-3-yl}phenol]	500 to 1000	< 50		
COc1cc(-c2ccc(-c3ccc(C4CN(C)C4)nn3)c(O)c2)cc2cn(C)nc12 [Compound 28, 5-(7-methoxy-2-methyl-2H-indazol-5-yl)-2-[6-(1-methylazetidin-3-yl)pyridazin-3-yl]phenol]	50 to 500	< 50	500 to 1000	
CCN1CC(c2ccc(-c3ccc(-c4cc(C)c5nc(C)cn5c4)cc3O)nn2)C1 [Compound 36, 5-{2,8-dimethylimidazo[1,2-a]pyridin-6-yl}-2-[6-(1-ethylazetidin-3-yl)pyridazin-3-yl]phenol]	≥ 1000	50 to 500		
Cc1cn2cc(-c3ccc(-c4ccc(C5CN(C)C5)nn4)c(O)c3)cc(C(F)(F)F)c2n1 [Compound 26, 5-[2-methyl-8-(trifluoromethyl)imidazo[1,2-a]pyridin-6-yl]-2-[6-(1-methylazetidin-3-yl)pyridazin-3-yl]phenol]	≥ 1000	50 to 500	500 to 1000	
Cc1cn2cc(-c3ccc(-c4ccc(C5CN(C(C)C)C5)nn4)c(O)c3)cc(F)c2n1 [Compound 15, 5-{8-fluoro-2-methylimidazo[1,2-a]pyridin-6-yl}-2-{6-[1-(propan-2-yl)azetidin-3-yl]pyridazin-3-yl}phenol]	50 to 500	< 50	< 50	
Cc1cn2cc(-c3ccc(-c4ccc(C5CN(C)C5)nn4)c(O)c3)cc(F)c2n1 [Compound 12, 5-{8-fluoro-2-methylimidazo[1,2-a]pyridin-6-yl}-2-[6-(1-methylazetidin-3-yl)pyridazin-3-yl]phenol]	50 to 500	< 50	500 to 1000	
CC(C)N1CC(c2ccc(-c3ccc(-c4ccc5nn(C)cc5c4)cc3O)nn2)C1 [Compound 23, 2-(6-(1-isopropylazetidin-3-yl)pyridazin-3-yl)-5-(2-methyl-2H-indazol-5-yl)phenol]	≥ 1000	< 50	> 1000	
COc1cc(-c2ccc(-c3ccc(C4CN(CC5CCSCC5)C4)nn3)c(O)c2)cc2cn(C)nc12 [Compound 167]				25 to 75
Cc1cn2cc(-c3ccc(-c4ccc(C5CN(C6CC7(COC(C)C7)C6)C5)nn4)c(O)c3)cc(F)c2n1 (centres unmarked) [Compound 124]				25 to 75
Cc1cn2cc(-c3ccc(-c4ccc(C5CN(CC6(C(F)F)CC6)C5)nn4)c(O)c3)cc(F)c2n1 [Compound 112]				25 to 75
COc1cc(-c2ccc(-c3ccc(C4CN(Cc5csnn5)C4)nn3)c(O)c2)cc2cn(C)nc12 [Compound 140]				< 25
CCN1CC(c2ccc(-c3ccc(-c4cn5cc(C)nc5c(C)n4)cc3O)nn2)C1 [Compound 32, 5-{2,8-dimethylimidazo[1,2-a]pyrazin-6-yl}-2-[6-(1-ethylazetidin-3-yl)pyridazin-3-yl]phenol]	≥ 1000			
CCOc1cc(-c2ccc(-c3ccc(C4CN(C)C4)nn3)c(O)c2)cc2cn(C)nc12 [Compound 55, 5-(7-ethoxy-2-methyl-2H-indazol-5-yl)-2-[6-(1-methylazetidin-3-yl)pyridazin-3-yl]phenol]	≥ 1000			
Cc1cn2cc(-c3ccc(-c4ccc(C5CN(Cc6conc6C)C5)nn4)c(O)c3)cc(F)c2n1 [Compound 114]				< 25
COc1cc(-c2ccc(-c3ccc(C4CN(C5CCN(C6CC6)C5)C4)nn3)c(O)c2)cc2cn(C)nc12 (centres unmarked) [Compound 139]				25 to 75
CCc1cc(-c2ccc(-c3ccc(C4CN(C5CCOCC5)C4)nn3)c(O)c2)nc2cn(C)nc12 [Compound 59, 5-{7-ethyl-2-methyl-2H-pyrazolo[4,3-b]pyridin-5-yl}-2-{6-[1-(oxan-4-yl)azetidin-3-yl]pyridazin-3-yl}phenol]	≥ 1000			
COc1cc(-c2ccc(-c3ccc(C4CN(Cc5ccc(C)nn5)C4)nn3)c(O)c2)cc2cn(C)nc12 [Compound 180]				25 to 75
COc1cc(-c2ccc(-c3ccc(C4CN(C(C)c5ccccn5)C4)nn3)c(O)c2)cc2cn(C)nc12 (centres unmarked) [Compound 138]				25 to 75
Cc1cn2cc(-c3ccc(-c4ccc(C5CN(C6CCOC6)C5)nn4)c(O)c3)cc(F)c2n1 (centres unmarked) [Compound 89]				> 750
Cn1cc2cc(-c3ccc(-c4ccc(C5CNC5)nn4)c(O)c3)ncc2n1 [Compound 44, 2-(6-(azetidin-3-yl)pyridazin-3-yl)-5-(2-methyl-2H-pyrazolo[3,4-c]pyridin-5-yl)phenol hydrochloride]	500 to 1000			
Cc1cn2cc(-c3ccc(-c4ccc(C5CN(CC6CCSC6)C5)nn4)c(O)c3)cc(F)c2n1 (centres unmarked) [Compound 111]				> 750
Cc1cc(-c2ccc(-c3ccc(C4CN(C)C4)nn3)c(O)c2)cc2cn(C)nc12 [Compound 27, 5-(2,7-dimethyl-2H-indazol-5-yl)-2-[6-(1-methylazetidin-3-yl)pyridazin-3-yl]phenol]	50 to 500			
CCN1CC(c2ccc(-c3ccc(-c4ccc5nc(C)cn5n4)cc3O)nn2)C1 [Compound 38, 2-[6-(1-ethylazetidin-3-yl)pyridazin-3-yl]-5-{2-methylimidazo[1,2-b]pyridazin-6-yl}phenol]	50 to 500	< 50	> 1000	
COc1cc(-c2ccc(-c3ccc(C4CN(Cc5cccnc5)C4)nn3)c(O)c2)cc2cn(C)nc12 [Compound 130]				25 to 75
Cc1cc2cc(-c3ccc(-c4ccc(C5CNC5)nn4)c(O)c3)cc(C)n2n1 [Compound 29, 2-[6-(azetidin-3-yl)pyridazin-3-yl]-5-{2,7-dimethylpyrazolo[1,5-a]pyridin-5-yl}phenol]	500 to 1000			
CCn1ccc(CN2CC(c3ccc(-c4ccc(-c5cc(OC)c6nn(C)cc6c5)cc4O)nn3)C2)c1 [Compound 152]				< 25
CCn1cc(CN2CC(c3ccc(-c4ccc(-c5cc(F)c6nc(C)cn6c5)cc4O)nn3)C2)cn1 [Compound 77]				> 750
